Measured values: a compilation of properties of binary mixtures (doi:10.1021/acs.jced.0c01028)

Assay: xn = mol fraction of the nth substance listed
Details: 81.5 kPa

CCCC[n+]1ccn(C)c1.N#C[S-] + CCCCC(C)O
x1 = 1
Details	speed of sound [m/s]
298.15 K	1762
308.15 K	1738
318.15 K	1714
328.15 K	1691
338.15 K	1668

CCCCC(C)O (configuration not stated) + CCCC[n+]1ccn(C)c1.N#C[S-]
speed of sound [m/s]
Details	x2 = 0	x2 = 0.1011	x2 = 0.2003	x2 = 0.2992	x2 = 0.3988	x2 = 0.4964	x2 = 0.6029	x2 = 0.6993	x2 = 0.7996	x2 = 0.8987
288.15 K	1299	–	1397	1448	1497	1549	1601	1653	–	1748
298.15 K	–	1316	1366	–	1469	1521	1574	1628	1673	1724
308.15 K	1226	1283	1335	1389	1441	1494	1549	1603	–	1700
318.15 K	1189	–	1304	–	–	1471	1530	1581	1632	1676
328.15 K	1153	–	–	1331	1385	1441	1498	1554	1601	1653
338.15 K	1117	1183	–	1302	1357	–	1474	–	1577	1630
